In patent EP0445156B1, “AGENTS FOR TREATING CHRONIC INFLAMMATORY DISEASES OF THE INTESTINES” (HENNING BERLIN GmbH CHEMIE- UND PHARMAWERK, priority 1988, dated 1990):
In brackets after ≈: the same amount, converted by molar mass. Where two headings read alike, the source gives them in different places.

Tests used:
pH of aqueous solution = format: physicochemical; conditions: 5%ige wäßrige Lösung
From the text: Aus der DE-OS 37 07 999 ist bekannt, Oxipurinol zur Verminderung von Zellschäden nach der Ischämie und vor der Reperfusion zu verwenden, und zwar durch intravenöse Verabreichung eines Alkalimetallsalzes, insbesondere des Natriumsalzes. Aus den Beispielen geht jedoch hervor, daß nicht das reine Natriumsalz verwendet wurde, sondern ein Gemisch aus Salz und überschüssiger Natronlauge. Dies ergibt sich vor allem aus den pH-werten der ca. 1 bis 2%-igen Lösungen von 11,5 bzw. 12,0. Das jetzt erstmals von der Anmelderin in reiner und kristalliner Form hergestellte Natriumsalz besitzt in 5%-iger wäßriger Lösung einen pH-wert von 9,7 und kristallisiert als Monohydrat aus.
(§1) Bei diesem Natrium-Salz handelt es sich um Mono-Natriumoxipurinol-Monohydrat. Das Salz ist weiß und kristallisiert in feinen Nadeln. In wäßriger Lösung reagiert es alkalisch, eine 5%ige Lösung besitzt einen pH-Wert von 9,7. Seine Löslichkeit beträgt: in Wasser bei 25°C 15,8 g/l 0°C 7,2 g/l in Methanol/Wasser (3:1 Vol.) bei 25°C ca. 2,0 g/l

Solubility = format: physicochemical; conditions: read-out: Löslichkeit
Description: as §1

[1] = Stability of the solid salt (air, drying temperature); format: physicochemical
Description: Das Salz ist luftbeständig und verträgt Trockentemperaturen bis etwa 70°C. Aus seiner heißen Lösung läßt sich mit verdünnter Salzsäure (10%ig) Oxipurinol fast quantitativ ausfällen.

[2] = test system: durch TNB (Trinitrobenzoesulfonsäure) ausgelösten Colitis der Ratte; assay: Histological proof of the anti-inflammatory effect in TNB-induced colitis of the rat; format: in vivo; conditions: 25 mg TNB rektal, 5 mg oral über Schlundsonde im Abstand von 8 Stunden, 3. - 21. Tag, TNB alone: Grad II - III
Description: (§2) Bei 10 Ratten (Körpermaße: 200-250 g) wurde durch rektale Instillation von 25 mg TNB (in 0,25 ml 30%iger ethanolischer Lösung) eine Colitis ausgelöst. Eine in gleicher Weise behandelte Gruppe von 10 Tieren erhielt vom 3. - 21. Tage nach der TNB-Gabe im Abstand von 8 Stunden 5 mg Oxipurinol-Na, das in 0,5 ml Glucoselösung aufgelöst war, oral über eine Schlundsonde verabreicht. Eine weitere Gruppe von 10 Tieren erhielt lediglich 0,25 ml der 30%igen Ethanollösung rektal instilliert, und weitere 10 Tiere dienten als Kontrolle.
Der Darm (Rectum) der mit TNB behandelten Tiere zeigte eine chronisch-rezidivierende Colitis Grad II - III. Bei einigen Tieren wurden inkomplette Erosionen, insbesondere in den über den Lymphfollikeln gelegenen Stellen des Oberflächenepithels, sehr dichte Infiltrate in der Submukosa und reichlich perivaskulär gelegene Mastzellen im umgebenden Fettgewebe, beobachtet. Die mit TNB und Oxipurinol-Na behandelten Tiere zeigten deutlich geringer ausgeprägte Entzündungemerkmale (Grad I): eine geringfügige Vermehrung von Lymphozyten und Mastzellen sowie ein geringes Ödem.

[3] = test system: durch TNB (Trinitrobenzoesulfonsäure) ausgelösten Colitis der Ratte; assay: Biochemical proof of the anti-inflammatory effect in TNB-induced colitis of the rat (purine nucleotides, TBA-RS in gut samples); format: in vivo; conditions: 21. Tag, 5 mg oral every 8 h, day 3-21
Description: as §2
Bei den im Beispiel 13 charakterisierten Tiergruppen wurden am 21. Tag Darmproben auf den Gehalt an Purinnukleotiden und Lipidperoxydationsprodukten (Thiobarbitursäure-reaktive Substanzen: TBA-RS) hin untersucht.
Die nach TNB-Applikation erhöhte Konzentration von TBA-RS wird durch Oxipurinol-Na-Zugabe auf46 % gesenkt und liegt damit sogar noch unter den Kontrollwerten. Danach verhindert Oxipurinol-Na den durch TNB ausgelösten Abfall der Adenin-'und Guaninnukleotide und die gesteigerte Lipidperoxydation.

[4] = general statement, no solvent or temperature given; cited from earlier work

Row | SMILES | pH-Wert (pH of aqueous solution) | solubility (Solubility; methanol/water (3:1 vol.), organic solvent or mixture, in Methanol/Wasser (3:1 Vol.) bei 25°C) [µg/mL] | solubility (Solubility; water, in Wasser bei 0°C) [µg/mL] | solubility (Solubility; water, in Wasser bei 25°C) [µg/mL] | Luftbeständigkeit [1] | verträgt Trockentemperaturen ([1]; drying) [°C] | Entzündungsmerkmale / Colitis Grad (Rectum, histologisch) [2] | Gehalte an Adenin- und Guaninnukleotiden (Darmproben) versus Ethanol- und Kontrollgruppe [3] | Löslichkeit (in words) [4]
1 | O=c1[nH]c(=O)c2cn[nH]c2[nH]1 [Oxipurinol-Natrium, Mono-Natriumoxipurinol-Monohydrat] | 9,7 | ~2000 (≈ 13.1 mM) | 7200 (≈ 47.3 mM) | 15800 (≈ 104 mM) | luftbeständig | ≤ 70 | Grad I | unterschieden sich nicht signifikant | 
2 | O=c1[nH]c(=O)c2c[nH]nc2[nH]1 [Oxipurinol] |  |  |  |  |  |  |  |  | sehr schwer löslich
